# Source: US20090098548A1, “MODULATORS OF ENZYMATIC NUCLEIC ACID ELEMENTS MOBILIZATION” (priority 2004, published 2009)
# Entries after “also recorded” stand apart in the source; their conditions may differ. Where two headings read alike, the source gives them in different places.
# How the values were obtained:
# [1] = target: T1, Tn5 transposase (EK54, MA56 and LP372 hyperactive mutant version) (Escherichia coli, UniProt Q46731, E54K/L372P/M56A); test: Inhibition of Tn5 transposase-DNA complex assembly (synapsis), gel shift assay; type: binding, prokaryotic (Tn5 transposon, IS4 family); conditions: 800 nM transposase, 160 nM dsDNA, 60 bp DNA, fit to exponential decay, ± SD from fit, at least two, typically three experiments
# T1 construct: made in house
# T1 sequence (Q46731 1-476 E54K/M56A/L372P): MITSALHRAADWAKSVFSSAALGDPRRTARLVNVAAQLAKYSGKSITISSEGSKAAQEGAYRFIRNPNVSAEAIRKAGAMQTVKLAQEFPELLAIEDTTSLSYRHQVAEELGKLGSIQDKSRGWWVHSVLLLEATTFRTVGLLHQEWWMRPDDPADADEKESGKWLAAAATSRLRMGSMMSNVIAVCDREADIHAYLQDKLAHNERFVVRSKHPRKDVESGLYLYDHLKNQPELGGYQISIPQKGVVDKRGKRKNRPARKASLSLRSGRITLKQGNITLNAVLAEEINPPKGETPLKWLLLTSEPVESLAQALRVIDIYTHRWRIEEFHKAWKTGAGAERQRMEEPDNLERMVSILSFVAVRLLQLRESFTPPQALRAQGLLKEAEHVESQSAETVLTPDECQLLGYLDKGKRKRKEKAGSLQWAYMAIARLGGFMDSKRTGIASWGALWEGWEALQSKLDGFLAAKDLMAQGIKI
# Method: The data in this graph were obtained from multiple experiments. Each data point represents at least two, typically three, independent experiments. Error is represented as the standard deviation (SD) from the fit of the data to the equation used to calculate the IC50. Tnp=transposase.
# IC50 values were determined from gel shift assays, similar to FIG. 5. […] Each value represents at least two, typically three, independent experiments. Error is represented as the standard deviation (SD) from the fit of the data to the equation used to calculate the IC50.
# DNA substrates: The oligonucleotides were purchased HPLC purified from IDT. dsDNA was formed by adding two μmoles of each oligonucleotide to 10 mM Tris-HCl pH 7.9 and 10 mM NaCl. The oligonucleotides were either heated to 96° C. for one minute followed by a decrease in temperature at 0.1° C./sec to 4° C. or heated to 90° C. in a 2 L water bath and cooled to 8° C. overnight. The transferred strand was 5′ end labeled with either rhodamine green for FP or fluorescein for gel shift assays.
# The 19 bp DNA sequences used for FP assays were 5° C. […] The 40 bp DNA sequences used for the gel shift assays during assay development were 5° C.
# (§1) Transposase and integrase purification: The EK54, MA56 and LP372 hyperactive mutant version of transposase was used for all assays and is referred to as transposase throughout this work. Transposase and integrase proteins were purified as described in Ason, B., and W. S. Reznikoff, J Mol Biol 335:1213-25, 2004 and Taganov, K. D. et al., Journal of Virology 78:5848-55, 2004, both are herein incorporated by reference in their entirety.
# FP and gel-shift assays: Reactions were performed as described in Ason, B., and W. S. Reznikoff, J Mol Biol 335:1213-25, 2004, except 800 nM transposase and 160 nM dsDNA were used for complex formation. For FP analysis, 60 μL reactions were analyzed using the FP protocol on a Wallac Victor V plate reader and a 7% native polyacrylamide gel was used in gel shift assays. For compound screening and subsequent analysis, 1 μL of either DMSO or test compound (final concentration […]) was added to the synapsis reactions. Compound screening was carried out using a Beckman Coulter Biomek FX in a 384 well format. Compounds identified as hits were rescreened using gel shift assays under synapsis conditions with a 120 μM compound concentration. IC50 values were obtained by fitting inhibitor titration data (0, 0.01, 0.05, 0.1, 0.5, 2.5, 10, 20, 35, 50, 100, 200, 400, 800 μM) to an exponential decay.
# HIV-1 integrase [2] = target: T2, HIV-1 integrase (Human immunodeficiency virus type 1 group M subtype B, UniProt P04585); test: HIV-1 integrase in vitro activity, 3' strand processing (denaturing PAGE); type: biochemical; set-up: HIV-1 integrase (1 μM, final concentration); made in house
# Method: The degree of 3′ strand processing is measured by the percentage of the signal obtained for the 3′ strand processing product relative to the total signal per lane. IN=integrase.
# These values are calculated from data measuring the percentage of the 3′ strand processing product formed, as described in FIG. 6. Assay products are observed using PAGE, as described in the methods section. Each value represents at least two, typically three, independent experiments. Error is represented as the standard deviation (SD) from the fit of the data to the equation used to calculate the IC50.
# Increasing concentrations (0.01, 0.1, 1, 10, 20, 30, 50, 75, 100 μM) of each compound were used to determine their ability to block HIV-1 integration in vivo and determine their inherent cytotoxicity, as described in the methods section of example 2 below. Reactions were performed in triplicate. Each compound is further analyzed for inhibition of integrase activity in vitro, as described in FIG. 6. Each value represents three independent experiments. Error is represented as the standard deviation (SD) from the fit of the data to the equation used to calculate the IC50. IN=integrase.
# as §1
# (§2) HIV-1 integrase assay: HIV-1 integrase activity was measured as described in Daniel, R. et al., AIDS Res Hum Retroviruses 20:135-44, 2004 (incorporated by reference in its entirety), except that 1.0 μL of either DMSO or inhibitor were added to the reactions. Briefly, HIV-1 integrase (1 μM, final concentration) was pre-incubated with various concentrations of inhibitor at 30° C. for 30 min. A 21-base pair ^32P labeled substrate (1×10^6 dpm), representing the U5 end of the viral genome, and MnCl2 (10 mM, final concentration) were subsequently added to the reaction. The reaction proceeded for 15 min. at 37° C. The reactions were subsequently quenched using EDTA (10 mM, final concentration), and the products separated on a 20% denaturing polyacrylamide gel.
# Tn5 transposase = target: T3, Tn5 transposase (Escherichia coli, UniProt Q46731, E54K/L372P/M56A); type: binding
# T3 construct: made in house
# Method: For FP analysis, 60 μL reactions were analyzed using the FP protocol on a Wallac Victor V plate reader and a 7% native polyacrylamide gel was used in gel shift assays. For compound screening and subsequent analysis, 1 μL of either DMSO or test compound (final concentration 80 KIM) was added to the synapsis reactions. Compound screening was carried out using a Beckman Coulter Biomek FX in a 384 well format. Compounds identified as hits were rescreened using gel shift assays under synapsis conditions with a 120 μM compound concentration. IC50 values were obtained by fitting inhibitor titration data (0, 0.01, 0.05, 0.1, 0.5, 2.5, 10, 20, 35, 50, 100, 200, 400, 800 μM) to an exponential decay.
# HIV-1 = system: HIV-1
# Method: HIV-1 transduction assay and inhibitory screen: 10,000 Ghost-R5 cells per well were plated in a 384 well plate in 49 μL media. 18 hours after plating, 1 μL of inhibitory compound, dissolved in DMSO, was added and gently mixed into solution. Following a 1 hour 37° C. incubation, HIV-1 virions were added in a final infectious volume of 100 μL. 44-48 hours after infection, 87 μL of media was removed from each well, and 13 μL/well of Bright-Glo luciferase detection reagent (Promega) was added. After a 2 minute incubation, the plates were read on a multiwell plate luminometer.
# In parallel, cells infected with virus and compound were assayed for luciferase expression by the addition of […] of Bright-Glo reagent, as described above. In this way, effect of the inhibitory compounds on luciferase expression brought about by successful transduction was measured in the constant presence of the compounds.
# [3] = system: luciferase expression from proviral DNA; test: Established provirus luciferase expression in stably infected Ghost-R5 cells; type: cell-based, HIV-1; conditions: 75 μM inhibitor, chronically infected cells
# Method: To assess the potential effects of the inhibitory compounds on post-integration events such as transcription, translation, and luciferase enzyme stability and activity, Ghost-R5 cells stably infected several weeks earlier with the same virus preparation were incubated with inhibitory compound in 96 well dishes and luciferase activity was monitored 48 hours later by the addition of 100 μL of Bright-Glo reagent to each well, as described above.
# [4] = system: HIV reverse transcription; test: Quantitative real-time PCR of reverse transcripts in acutely infected cells; type: cell-based, HIV-1; conditions: 75 μM inhibitor, QPCR
# Method: Quantitative real-time PCR of reverse transcripts, detection of transduction in newly infected cells, and effect of compounds on established provirus expression in stably infected cells: 10,000 Ghost-R5 cells were plated in 96 well dishes, treated with compound in a total volume of 75 μL, and incubated at 37° C. for 1 hour. Virus was then added in an additional volume of 25 μL. The final infectious volume was 100 μL, the final DMSO concentration was 1%, and the final compound concentration was as indicated. DNA was harvested using the DNeasy kit (Qiagen) 24 hours after infection in the constant presence of inhibitory compounds. Late DNA products of HIV reverse transcription were quantitated using the primers MH531 and MH532, and the probe LTR-P, as described in Burke, T. R. et al., J Med Chem 38:4171-8, 1995, herein incorporated by reference in its entirety.
# HIV-1 integrase [5] = target: T2, HIV-1 integrase; test: HIV-1 integrase assay (3' strand processing, PAGE); type: biochemical; set-up: made in house
# Method: as §2
# [6] = read-out: HIV-1 IN (integrase) in vitro IC50
# [7] = 1 μM integrase, pre-incubated 30° C. 30 min, 21-base pair 32P substrate, 10 mM MnCl2, 15 min 37° C., ± SD from fit, at least two, typically three experiments, read-out: HIV-1 integrase (3' strand processing) IC50
Compound,IC50 [1],also measured
Cc1ccc(C(=O)Nc2ccccc2C(=O)Nc2ccccc2C(=O)O)cc1 [Compound 8],8.7 ± 1 µM,
O=C(O)C(Cc1ccccc1)N1C(=O)C(=Cc2ccc(Br)cc2)SC1=S (stereo not drawn) [Compound 18],10 ± 1 µM,
O=C(/C=C/c1ccccc1)C1=C(O)C(=O)N(c2cccc(C(F)(F)F)c2)C1c1ccc([N+](=O)[O-])cc1 (stereo not drawn) [Compound 10-F],,IC50 (HIV-1 integrase [2]; [6]): 11 ± 4 µM
O=C(/C=C/c1ccccc1)C1=C(O)C(=O)N(c2ccccc2)C1c1cccc([N+](=O)[O-])c1 (stereo not drawn) [Compound 10],35 ± 3 µM,
O=C(/C=C/c1ccccc1)C1=C(O)C(=O)N(c2cccc(C(=O)O)c2)C1c1ccc([N+](=O)[O-])cc1 (stereo not drawn) [Compound 10-D],,IC50 (HIV-1 integrase [2]; [6]): 87 ± 9 µM
COc1cccc(C(c2c(O)c3ccccc3oc2=O)c2c(O)c3ccccc3oc2=O)c1 [Compound 12],9.5 ± 0.9 µM,
O=C(Nc1ccccc1C(=O)O)c1cccc(NC(=O)C(c2ccccc2)c2ccccc2)c1 [Compound 16],46 ± 5 µM,
O=C1C(=C2c3ccccc3C(=O)C2C2c3ccccc3Oc3ccccc32)C(=O)c2ccccc21 (stereo not drawn) [Compound 9],3.4 ± 0.7 µM,
COc1ccc(N2C(=O)C(O)=C(C(=O)/C=C/c3ccccc3)C2c2ccc([N+](=O)[O-])cc2)cc1 (stereo not drawn) [Compound 10-C],,IC50 (HIV-1 integrase [2]; [6]): 46 ± 12 µM
Cc1ccc(C(c2c(O)c3ccccc3oc2=O)c2c(O)c3ccccc3oc2=O)cc1 [Compound 3],3.5 ± 0.4 µM,
COc1ccc(C(c2c(O)c3ccccc3oc2=O)c2c(O)c3ccccc3oc2=O)cc1Cn1nc(C)c([N+](=O)[O-])c1C [Compound 4],4.7 ± 0.4 µM,IC50 (HIV-1 integrase [2]; [7]): 9 ± 2 µM
COc1cccc(OCCOc2cccc(C=C3SC(=S)NC3=O)c2)c1 [Compound 11],5.3 ± 0.9 µM,
O=C(NC(=S)Nc1cc([N+](=O)[O-])cc(Cl)c1O)c1ccccc1 [aromatic thiourea],,"IC50 (Tn5 transposase; read-out: IC50, inhibition of Tn5 transposase-DNA complex assembly, gel shift assays, inhibitor titration): 24 µM"
COc1cc(C=C2SC(=S)NC2=O)cc(Cl)c1OC(C)C [Compound 5],10 ± 1 µM,
O=C(O)C(Cc1ccccc1)N1C(=O)C(=CC=Cc2ccccc2)SC1=S (stereo not drawn) [Compound 19],16 ± 2 µM,
O=S(=O)(c1cc(Cl)cc(Cl)c1O)c1cc(Cl)cc(Cl)c1O [Compound 6],4 ± 0.3 µM,IC50 (HIV-1 integrase [2]; [7]): 32 ± 9 µM
Cc1ccccc1N1C(=O)C(O)=C(C(=O)/C=C/c2ccccc2)C1c1ccc(Br)cc1 (stereo not drawn) [Compound 10-G],,IC50 (HIV-1 integrase [2]; [6]): 11 ± 2 µM
COc1ccc(C(c2c(O)c3ccccc3oc2=O)c2c(O)c3ccccc3oc2=O)cc1CSc1ccccn1 [Compound 2],4.8 ± 0.4 µM,
O=c1oc2ccccc2c(O)c1C(c1cccc(F)c1)c1c(O)c2ccccc2oc1=O [Compound 1],8.1 ± 1.2 µM,
CCCOc1ccc(C(=O)Nc2ccc(Br)cc2C(=O)O)cc1 [Compound 20],20 ± 3 µM,
O=C(Nc1ccccc1C(=O)O)c1ccc(NC(=O)C(c2ccccc2)c2ccccc2)cc1 [Compound 17],9.3 ± 0.9 µM,
COc1cc(C=C2SC(=S)NC2=O)ccc1OS(=O)(=O)c1ccccc1[N+](=O)[O-] [Compound 14],8.6 ± 0.8 µM,IC50 (HIV-1 integrase [2]; [7]): 17 ± 3 µM
COc1ccc(N2C(=O)C(O)=C(C(=O)/C=C/c3ccccc3)C2c2cccc([N+](=O)[O-])c2)cc1 (stereo not drawn) [Compound 10-B],,IC50 (HIV-1 integrase [2]; [6]): 22 ± 12 µM
CCc1nnc(NS(=O)(=O)c2ccc(NC=CC(=O)c3ccc4ccccc4c3)cc2)s1 [Compound 7],4 ± 0.6 µM,
O=C(C1=C(O)C(=O)N(c2ccccc2)C1c1cccc([N+](=O)[O-])c1)c1ccccc1 (stereo not drawn) [Compound 10-A],,IC50 (HIV-1 integrase [2]; [6]): 165 ± 35 µM
COc1ccc(N2C(=O)C(O)=C(C(=O)/C=C/c3ccccc3)C2c2cccc([N+](=O)[O-])c2)cc1 (stereo not drawn) [10-B],,"inhibition of transposase assembly (in words) (Tn5 transposase): inhibit; inhibition of HIV-1 infection in cells (in words) (HIV-1): inhibit; effect on luciferase expression from proviral DNA [3]: no significant inhibitory effect; effect on reverse transcription (viral DNA synthesis) [4]: either uninhibited, or only inhibited to a small extent; also recorded: no significant inhibitory effect; inhibition of integrase in vitro (in words) (HIV-1 integrase [5]): inhibit"
O=C(C1=C(O)C(=O)N(c2ccccc2)C1c1cccc([N+](=O)[O-])c1)c1ccccc1 (stereo not drawn) [compound 10-A],,inhibition of integrase in vitro (in words) (HIV-1 integrase [5]): impedes its efficacy as an integrase inhibitor
O=C(Nc1ccccc1C(=O)O)c1ccc2c(c1)C(=O)N(c1ccccc1-c1ccccc1)C2=O [Compound 15],20 ± 2 µM,
COc1ccc(N2C(=O)C(O)=C(C(=O)/C=C/c3ccccc3)C2c2ccc(Cl)cc2)cc1 (stereo not drawn) [Compound 10-E],,IC50 (HIV-1 integrase [2]; [6]): 12 ± 3 µM
